Reference: patent publication US11718620B2, “Method for treating a cancer mediated by abnormality of multi-kinases” (TransThera Sciences (Nanjing), Inc., priority 2016, dated 2023)

Experiments:
Aurora A [1] = target: T1, Aurora A (Homo sapiens, UniProt O14965); assay: Aurora A enzymatic activity test, FAM-labeled peptide, Caliper; assay type: biochemical; conditions: FAM-labeled peptide substrate, read-out: Kinase-inhibiting activity IC50 Aurora A
T1 sequence (O14965 1-403): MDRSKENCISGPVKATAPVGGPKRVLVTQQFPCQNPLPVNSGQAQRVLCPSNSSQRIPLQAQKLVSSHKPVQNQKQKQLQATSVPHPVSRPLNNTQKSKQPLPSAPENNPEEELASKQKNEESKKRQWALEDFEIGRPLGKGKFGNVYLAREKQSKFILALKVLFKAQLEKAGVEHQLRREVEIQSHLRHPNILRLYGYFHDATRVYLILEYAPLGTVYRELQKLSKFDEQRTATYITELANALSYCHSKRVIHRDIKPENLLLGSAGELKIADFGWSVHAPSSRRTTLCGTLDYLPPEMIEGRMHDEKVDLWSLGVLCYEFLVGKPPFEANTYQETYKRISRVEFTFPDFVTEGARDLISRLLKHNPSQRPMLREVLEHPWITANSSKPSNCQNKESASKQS
Experimental: (§1) Test samples: Compounds in the present invention (the sequence numbers and structures thereof are shown in Table 1), dilution concentration: 0.03 μM-3 μM, a total of 10 concentration gradients.
(§2) Test method: enzymatic activity tests of Aurora kinase (including Aurora A and Aurora B) and VEGFR2 (KDR) were performed using a multi-function microplate reader.
(§3) a) 96-well plates, 10 dose groups, 3-fold serial dilutions, each well was added with DMSO, maximal concentration of 500 μM (50-fold compound).
(§4) b) 384-well plates, diluted with 1× kinase buffer (50 mM HEPES, pH 7.5; 0.0015% Brij-35; 2 mM DTT), each well containing 5× compound dissolved in 5 μL of 10% DMSO. Each well of the negative control contains 5 μL of 1× kinase buffer containing 10% DMSO.
(§5) Aurora A, Aurora B and KDR were dissolved in 1× kinase buffer and prepared as a 2.5× enzyme solution. After the compound in various concentrations was reacted with 2.5× enzyme solution at room temperature for 10 min, the FAM-labeled peptide substrate and ATP were added to initiate reaction. After incubation for 40 minutes, 25 μL of terminal solution (100 mM HEPES, pH 7.5; 0.015% Brij-35; 0.2% Coating Reagent #3; 50 mM EDTA) was added to stop the reaction, and the final data were read by Caliper.

KDR(VEGFR2) [2] = target: T2, KDR(VEGFR2) (Homo sapiens, UniProt P35968); assay: KDR enzymatic activity test, FAM-labeled peptide, Caliper; assay type: biochemical; conditions: FAM-labeled peptide substrate, read-out: Kinase-inhibiting activity IC50 KDR(VEGFR2)
Experimental: as §1, §2, §3, §4, §5

[3] = test system: HCC70 breast cancer cells; assay: Cell proliferation, Cell Titer-Glo; assay type: cell-based; conditions: Homo sapiens, 72 hours, read-out: Cellular inhibitory activity IC50 HCC70
Experimental: (§6) Test method: The effect of compounds on cell proliferation of different cell lines was examined by Cell Titer-Glo method.
(§7) Each cell line was inoculated into a 96-well plate one day in advance, and after overnight incubation, drugs in different concentrations were added to a final concentration of 0-10000 nM, 3-5 folds dilution, for a total of 10 concentration points. After incubation for 72 hours, the mixture was added with Cell titer-Glo reagent equilibrated at room temperature, and shaken to incubation for 10 min, and then allowed to stand at room temperature for 2 min to stabilize the light signal. The multi-function microplate reader was used to read data from each well and analyze it.

[4] = test system: BT-549 breast cancer cells; assay: Cell proliferation, Cell Titer-Glo; assay type: cell-based; conditions: Homo sapiens, 72 hours, read-out: Cellular inhibitory activity IC50 BT-549
Experimental: as §6, §7

[5] = test system: HCC38 breast cancer cells; assay: Cell proliferation, Cell Titer-Glo; assay type: cell-based; conditions: Homo sapiens, 72 hours, read-out: Cellular inhibitory activity IC50 HCC38
Experimental: as §6, §7

[6] = test system: HCC1954 breast cancer cells; assay: Cell proliferation, Cell Titer-Glo; assay type: cell-based; conditions: Homo sapiens, 72 hours, read-out: Cellular inhibitory activity IC50 HCC1954
Experimental: as §6, §7

Aurora B [7] = target: T3, Aurora B (Homo sapiens, UniProt Q96GD4); assay: Aurora B enzymatic activity test, FAM-labeled peptide, Caliper; assay type: biochemical; conditions: FAM-labeled peptide substrate, read-out: Kinase-inhibiting activity IC50 Aurora B
Experimental: as §1, §2, §3, §4, §5

[8] = test system: MDA-MB-468 breast cancer cells; assay: Cell proliferation, Cell Titer-Glo; assay type: cell-based; conditions: Homo sapiens, 72 hours, read-out: Cellular inhibitory activity IC50 MDA-MB-468
Experimental: as §6, §7

A549 Lung cancer cells = assay: Cell proliferation, Cell Titer-Glo; assay type: cell-based; conditions: Homo sapiens, 72 hours, read-out: Cellular inhibitory activity IC50 A549
Experimental: as §6, §7

[9] = test system: OVCAR-8 ovarian cancer cells; assay: Cell proliferation, Cell Titer-Glo; assay type: cell-based; conditions: Homo sapiens, 72 hours, read-out: Cellular inhibitory activity IC50 OVCAR-8
Experimental: as §6, §7

[10] = test system: Caov-3 ovarian cancer cells; assay: Cell proliferation, Cell Titer-Glo; assay type: cell-based; conditions: Homo sapiens, 72 hours, read-out: Cellular inhibitory activity IC50 Caov-3
Experimental: as §6, §7

[11] = test system: OVCAR-3 ovarian cancer cells; assay: Cell proliferation, Cell Titer-Glo; assay type: cell-based; conditions: Homo sapiens, 72 hours, read-out: Cellular inhibitory activity IC50 OVCAR-3
Experimental: as §6, §7

Kasumi-1 Leukemic cells = assay: Cell proliferation, Cell Titer-Glo; assay type: cell-based; conditions: Homo sapiens, 72 hours, read-out: Cellular inhibitory activity IC50 Kasumi-1
Experimental: as §6, §7

[12] = test system: TOV-112D ovarian cancer cells; assay: Cell proliferation, Cell Titer-Glo; assay type: cell-based; conditions: Homo sapiens, TOV112D, 72 hours, read-out: Cellular inhibitory activity IC50 TOV-112D
Experimental: as §6, §7

KG-1 Leukemic cells = assay: Cell proliferation, Cell Titer-Glo; assay type: cell-based; conditions: 72 hours, read-out: Cellular inhibitory activity IC50 KG-1
Experimental: as §6, §7

Hep3B liver cancer cells = assay: Cell proliferation, Cell Titer-Glo; assay type: cell-based; conditions: Homo sapiens, 72 hours, read-out: Cellular inhibitory activity IC50 Hep3B
Experimental: as §6, §7

[13] = test system: A2780 ovarian cancer cells; assay: Cell proliferation, Cell Titer-Glo; assay type: cell-based; conditions: Homo sapiens, 72 hours, read-out: Cellular inhibitory activity IC50 A2780
Experimental: as §6, §7

[14] = test system: D4475 breast cancer cells; assay: Cell proliferation, Cell Titer-Glo; assay type: cell-based; conditions: 72 hours, read-out: Cellular inhibitory activity IC50 D4475
Experimental: as §6, §7

Aurora B [15] = target: T3, Aurora B; assay: Aurora B kinase activity test, [γ-33P]-ATP filter membrane; assay type: biochemical; conditions: 40 minutes at room temperature, read-out: Kinase-inhibiting activity IC50 Aurora B
Experimental: (§8) Test samples: compounds 1 to 4 in the present invention (the sequence numbers and structures thereof are shown in Table 1), dilution concentration: 0.03 μM-3 μM, a total of 10 concentration gradients.
as §2
(2) Test for Aurora B Kinase Activity:
Aurora B kinase protein and the compounds were sequentially added to the following reaction system: 8 mM MOPS pH 7.0, 0.2 mM EDTA, 30 μM […], 10 mM magnesium acetate and [γ-^33P]-ATP (radioactive activity was approximately 500 cpm/pmol). Then the above reaction system was added with ATP to start the reaction, and incubated at room temperature for 40 minutes. Then the reaction was terminated by adding a 3% phosphoric acid solution. 10 μL was taken out from the reaction system, and then added dropwise to a P30 filtermat filter membrane, washed three times in 75 mM phosphoric acid solution for 5 minutes, and then washed once with methanol. After the filter was dried, count was performed by a liquid crystal scintillation counter.

Aurora A [16] = target: T1, Aurora A; assay: Aurora A kinase activity test, [γ-33P]-ATP filter membrane; assay type: biochemical; conditions: 40 minutes at room temperature, read-out: Kinase-inhibiting activity IC50 Aurora A
Experimental: as §8, §2
(1) Test for Aurora a Kinase Activity:
Aurora A kinase protein and the compounds were sequentially added to the following reaction system: 8 mM MOPS pH 7.0, 0.2 mM EDTA, 200 μM LRRASLG (Kemptide), 10 mM magnesium acetate and [γ-^33P]-ATP (radioactive activity was approximately 500 cpm/pmol). Then the above reaction system was added with ATP to start the reaction, and incubated at room temperature for 40 minutes. Then the reaction was terminated by adding a 3% phosphoric acid solution. 10 μL was taken out from the reaction system, and then added dropwise to a P30 filtermat filter membrane, washed three times in 75 mM phosphoric acid solution for 5 minutes, and then washed once with methanol. After the filter membrane was dried, count was performed by a liquid crystal scintillation counter.

KDR(VEGFR2) [17] = target: T2, KDR(VEGFR2); assay: KDR kinase activity test, [γ-33P]-ATP filter membrane; assay type: biochemical; conditions: 40 minutes at room temperature, read-out: Kinase-inhibiting activity IC50 KDR (VEGFR2)
Experimental: as §8, §2
(3) Test for KDR Kinase Activity:
KDR kinase protein and the compounds were sequentially added to the following reaction system: 8 mM MOPS pH 7.0, 0.2 mM EDTA, 0.33 mg/mL myelin basic protein, 10 mM magnesium acetate and [γ-^33P]-ATP (radioactive activity was approximately 500 cpm/pmol). Then the above reaction system was added with ATP to start the reaction, and incubated at room temperature for 40 minutes. Then the reaction was terminated by adding a 3% phosphoric acid solution. 10 μL was taken out from the reaction system, and then added dropwise to a P30 filtermat filter membrane, washed three times in a 75 mM phosphoric acid solution for 5 minutes, and then washed once with methanol. After the filter was dried, count was performed by a liquid crystal scintillation counter.

T2 sequence (P35968 20-1356): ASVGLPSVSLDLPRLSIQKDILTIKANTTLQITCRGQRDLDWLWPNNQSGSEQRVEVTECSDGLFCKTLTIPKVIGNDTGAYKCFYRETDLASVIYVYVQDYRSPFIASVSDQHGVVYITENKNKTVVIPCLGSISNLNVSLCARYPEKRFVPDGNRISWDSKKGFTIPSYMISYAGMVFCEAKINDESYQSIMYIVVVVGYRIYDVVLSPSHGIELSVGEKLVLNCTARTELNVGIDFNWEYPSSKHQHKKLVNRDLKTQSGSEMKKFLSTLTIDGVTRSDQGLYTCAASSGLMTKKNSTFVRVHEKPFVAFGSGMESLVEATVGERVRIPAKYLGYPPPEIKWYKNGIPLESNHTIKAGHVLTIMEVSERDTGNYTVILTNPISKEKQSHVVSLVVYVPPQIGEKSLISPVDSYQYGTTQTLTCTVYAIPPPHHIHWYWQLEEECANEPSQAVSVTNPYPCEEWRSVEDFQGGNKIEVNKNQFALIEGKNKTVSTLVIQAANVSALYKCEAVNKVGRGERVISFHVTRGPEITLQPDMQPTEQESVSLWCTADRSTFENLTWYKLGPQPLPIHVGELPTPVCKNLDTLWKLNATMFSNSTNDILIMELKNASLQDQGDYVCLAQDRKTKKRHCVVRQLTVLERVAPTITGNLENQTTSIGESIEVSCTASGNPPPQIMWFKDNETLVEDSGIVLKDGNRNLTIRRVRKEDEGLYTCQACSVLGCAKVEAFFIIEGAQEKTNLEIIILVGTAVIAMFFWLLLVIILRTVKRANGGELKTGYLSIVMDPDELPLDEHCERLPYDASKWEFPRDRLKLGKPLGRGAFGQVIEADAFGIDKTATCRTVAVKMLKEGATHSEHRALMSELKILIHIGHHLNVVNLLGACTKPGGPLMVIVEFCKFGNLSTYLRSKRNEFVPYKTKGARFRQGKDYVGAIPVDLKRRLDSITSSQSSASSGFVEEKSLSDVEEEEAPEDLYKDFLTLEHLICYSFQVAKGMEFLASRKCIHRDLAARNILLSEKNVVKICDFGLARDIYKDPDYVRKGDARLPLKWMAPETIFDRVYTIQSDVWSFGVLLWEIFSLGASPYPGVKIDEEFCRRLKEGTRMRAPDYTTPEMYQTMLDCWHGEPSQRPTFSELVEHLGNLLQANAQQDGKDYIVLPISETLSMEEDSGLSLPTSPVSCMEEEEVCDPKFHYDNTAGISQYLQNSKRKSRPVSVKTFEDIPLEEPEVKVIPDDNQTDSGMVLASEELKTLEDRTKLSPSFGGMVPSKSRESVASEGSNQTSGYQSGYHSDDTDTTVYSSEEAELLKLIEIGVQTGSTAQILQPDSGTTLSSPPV
T3 sequence (Q96GD4 whole entry): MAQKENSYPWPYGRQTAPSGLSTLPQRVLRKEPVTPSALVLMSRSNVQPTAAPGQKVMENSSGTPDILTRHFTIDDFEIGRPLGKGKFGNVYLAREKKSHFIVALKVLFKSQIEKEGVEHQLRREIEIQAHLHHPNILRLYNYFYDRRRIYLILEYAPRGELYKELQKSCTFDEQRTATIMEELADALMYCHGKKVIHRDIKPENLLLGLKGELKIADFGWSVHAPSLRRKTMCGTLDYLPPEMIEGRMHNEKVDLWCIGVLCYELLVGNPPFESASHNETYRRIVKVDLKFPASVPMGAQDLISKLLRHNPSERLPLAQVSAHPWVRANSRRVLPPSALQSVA

Row | SMILES | IC50 (Aurora A [1]) [nM] | IC50 (KDR(VEGFR2) [2]) [nM] | IC50 [4] [nM] | IC50 [6] [nM] | IC50 (Aurora B [7]) [nM] | IC50 (A549 Lung cancer cells) [nM] | IC50 [9] [nM] | IC50 [10] [nM] | IC50 [11] [nM] | IC50 (Kasumi-1 Leukemic cells) [nM] | IC50 [12] [nM] | IC50 (KG-1 Leukemic cells) [nM] | IC50 (Hep3B liver cancer cells) [nM] | IC50 [13] [nM] | IC50 (Aurora B [15]) [nM] | IC50 (Aurora A [16]) [nM] | IC50 (KDR(VEGFR2) [17]) [nM] | further results
1 | CCN1CCN(Cc2cc3c(cn2)C(c2ccccc2Cl)=Nc2c(n[nH]c2C)N3)CC1 [Compound 33] | 4.8 | 1.6 | 421 | 538 | 5.8 |  |  |  |  |  |  |  |  |  |  |  |  | IC50 [3]: 866 nM; IC50 [5]: 700 nM
2 | Cc1[nH]nc2c1N=C(c1ccccc1Cl)c1cnc(CN3CCOCC3)cc1N2 [Compound 35] | 4.8 | 8.6 | 509 | 732 | 15 | 578 | 620 | 266 | 266 | 80 |  |  |  |  |  |  |  | IC50 [8]: 1030 nM
3 | CCc1cc2c(cn1)C(c1ccccc1Cl)=Nc1c(n[nH]c1C)N2 [Control drug 1-2, reference compound] | 1.6 | 3.2 | 654 | 894 | 4 | 1380 | 613 | 365 | 814 | 126 | 2510 | 452 | 244 | 650 |  |  |  | IC50 [8]: 1380 nM; IC50 [3]: 1520 nM; IC50 [5]: 1100 nM; IC50 [14]: 443 nM
4 | Cc1[nH]nc2c1N=C(c1ccccc1Cl)c1cnc(N3CCOCC3)cc1N2 [Compound 29, 4-(5-(2-chlorophenyl)-3-methyl-2,10-dihydropyrazolo[4,3-b]pyrido[4,3-e][1,4]diazepin-8-yl)morpholine] | 0.49 | 1.2 | 170 | 396 | 5 | 322 | 305 | 184 | 307 | 48 | 955 | 5 | 50 | 35 |  |  |  | IC50 [14]: 113 nM
5 | Cc1[nH]nc2c1N=C(c1ccccc1Cl)c1cnc(S(C)(=O)=O)cc1N2 [Compound 1] |  |  |  |  |  |  |  |  |  |  |  |  |  |  | 30 | 12 | 1660 | 
6 | COc1cc2c(cn1)C(c1ccccc1Cl)=Nc1c(n[nH]c1C)N2 [Compound 3] |  |  |  |  |  |  |  |  |  |  |  |  |  |  | 8 | 4 | 876 | 
7 | Cc1[nH]nc2c1N=C(c1ccccc1Cl)c1cnc(N3CCS(=O)(=O)CC3)cc1N2 [Compound 34] | 1.3 | 2.3 |  |  | 7.5 |  |  |  |  | 81 |  | 45 |  |  |  |  |  | 
8 | Cc1[nH]nc2c1N=C(c1ccccc1Cl)c1cnc(N3CCN(C)CC3)cc1N2 [Compound 22, 5-(2-chlorophenyl)-3-methyl-8-(4-methylpiperazin-1-yl)-2,10-dihydropyrazolo[4,3-b]pyrido[4,3-e][1,4]diazepine] | 1.2 | 0.91 |  |  | 7.1 |  | 433 | 146 | 752 | 19 | 650 | 5 | 67 | 34 |  |  |  | 
9 | Cc1[nH]nc2c1N=C(c1ccccc1Cl)c1cnc(C3CC3)cc1N2 [Compound 2] |  |  |  |  |  |  |  |  |  |  |  |  |  |  | 4 | < 3 | 593 | 
10 | Cc1[nH]nc2c1N=C(c1ccccc1Cl)c1cnc(OC3CCOC3)cc1N2 (stereo not shown) [Compound 4] |  |  |  |  |  |  |  |  |  |  |  |  |  |  | 3 | 4 | 1520 | 
